Reference: US20110251203A1, “USE OF PKC INHIBITORS IN DIABETIC COMPLICATIONS” (priority 2006, published 2011)

System: transgenic (mRen-2)27 rats
Test: Streptozotocin-diabetic Ren-2 rat model of diabetic complications
Type: in vivo
Conditions: administered i.v. at a dose of from 0.1 to 10 mg/kg
Experimental: Ren-2 rats (e.g. as disclosed in D. J. Kelly et al, Kidney Int, Vol 54, 1998, p343-352)
The effect of Compound A, B or C, on diabetic complications is tested in transgenic (mRen-2)27 rats (also called “Ren-2 rats”), model that develops hypertension and many of the structural and functional characteristics of human diabetic nephropathy when diabetes is induced by streptozotocin, resulting in a progressive disease with many of the structural, functional and molecular characteristics of human diabetic nephropathy. The progression of this disease is associated with an increase in renal and cardiac growth factors and extra cellular matrix accumulation.
The effect of the compounds of the invention on diabetic nephropathy may be studied with the Ren-2 rats model, as disclosed in D. J. Kelly et al, Diabetes, Vol 52, February 2003, p512-518: Diabetes is induced by injection of streptozotocin, 55 mg/kg. All diabetic rats receive insulin (human isophane) 2 units/day to promote body weight and reduce mortality. The experimental period continues for 16 weeks in Ren-2 rats to study advanced renal and cardiac disease. Rats are randomised to the following groups:
Group 1: non-diabetic Ren-2, no drug Group 2: non-diabetic Ren2, Compound C Group 3: non-diabetic Ren-2, Compound A Group 4: diabetic Ren-2 Group 5: diabetic Ren-2, drug Compound C, dose 1 Group 6: diabetic Ren-2, drug Compound A, dose 1 Group 7: diabetic Ren-2, drug Compound C, dose 2 Group 8: diabetic Ren-2, drug Compound A, dose 2 N=20 per group (160 rats) […]
The spatial distribution and quantitation of the immunohistochemistry by image analysis provide specific information regarding the cell type and location of disease progression. […]
The right kidney is snap frozen in liquid nitrogen and used for molecular biological experiments. Tissue and cell specific changes in expression may be quantifyed using immunohistochemistry with quantitative image analysis and real time PCR (ABI Prism 7700, Perkin Elmer Biosystems, Foster City, Calif.) with TaqMan, Such a PCR analysis is a technique well known by the one skilled in the art.

SMILES | effect on the diabetic complications
Cc1cccc2c(C3=C(c4nc(N5CCNC6(CC6)C5)cc5ccccc45)C(=O)NC3=O)c[nH]c12 [Compound C, 3-[3-(4,7-Diaza-spiro[2,5]oct-7-yl)-isoquinolin-1-yl]-4-(7-methyl-1H-indol-3-yl)-pyrrole-2,5-dione] | beneficial effect
CN1CCN(c2nc(C3=C(c4c[nH]c5ccccc45)C(=O)NC3=O)c3ccccc3n2)CC1 [Compound A, 3-(1.H.-indol-3-yl)-4-[2-(4-methyl-piperazin-1-yl)-quinazolin-4-yl]-pyrrole-2,5-dione] | beneficial effect
O=C1NC(=O)C(c2c[nH]c3ccccc23)=C1c1nc(N2CCNCC2)nc2ccccc12 [Compound B, 3-(1.H.-indol-3-yl)-4-[2-(piperazin-1-yl)-quinazolin-4-yl]-pyrrole-2,5-dione] | beneficial effect
